Measured values reported in patent US20090088461A1, “Methods of Treating or Preventing Cardiac Disease Associated With a High Fat Diet” (Synvista Therapeutics, Inc., priority 2007, published 2009).
“Also recorded” adds a separate entry of the source.

Assays:
Assay type in all cases: in vivo
[1] = Physiological and biochemical parameters in HF-fed mice; details: HF diet, 1 mg/kg/day oral gavage; for Weight gain (% baseline): 16 weeks
Text: Adult (8-week-old) male […] mice (Precinct Animal Centre, Melbourne, Australia) and RAGE knockout (KO) mice^17 ([…] al., J Clin Invest. 113:1641-50, 2004) were housed in a temperature-controlled room on a 12-h light-dark cycle. Mice were placed on either a standard diet (AIN-93G; Specialty feeds, Perth AUS; n=10/group) or a high fat (HF) diet formulated to mimic a “Western fast food diet”, (SF05-031, Specialty Feeds; n=10). Both diets contained the same vitamin and calorie content. […] Animals receiving a HF diet were further randomized to receive alagebrium chloride at a dose of 1 mg/kg/day delivered by oral gavage. All groups were followed for 16 weeks. The following parameters were serially measured in all groups: body weight; blood glucose, measured using a glucometer; systolic blood pressure, measured by tail-cuff plethysmography in conscious, warmed mice.

[2] = test system: PPARα, CD36, intra-myocardial triacylglycerol; assay: Assessment of lipid metabolism in HF-fed mice; details: for Gene expression PPAR alpha: HF diet, real time RT-PCR
Text: Adult (8-week-old) male […] mice (Precinct Animal Centre, Melbourne, Australia) and RAGE knockout (KO) mice^17 ([…] al., J Clin Invest. 113:1641-50, 2004) were housed in a temperature-controlled room on a 12-h light-dark cycle. Mice were placed on either a standard diet (AIN-93G; Specialty feeds, Perth AUS; n=10/group) or a high fat (HF) diet formulated to mimic a “Western fast food diet”, (SF05-031, Specialty Feeds; n=10). Both diets contained the same vitamin and calorie content. […] Animals receiving a HF diet were further randomized to receive alagebrium chloride at a dose of 1 mg/kg/day delivered by oral gavage. All groups were followed for 16 weeks. Changes in myocardial energy metabolism, due to altered substrate handling, characterize obesity-related cardiac disease^5 (Boudina and Abel, Circulation 115:3213-23, 2007). In particular, intra-myocardial accumulation of triacylglycerol metabolites mediated by activation of peroxisome proliferator activated receptor α(PPARα) has been strongly associated with cardiac dysfunction in rodents fed a HF diet^20 (Ouwens et al., Diabetologia 48:1229-37, 2005). To assess the interaction of AGE/RAGE with lipotoxicity pathways in this model, the ventricular expression of PPARα and the fatty acid translocase, CD36, were assessed by real-time quantitative RT-PCR. Intra-myocardial accumulation of triacylglycerol metabolites was assessed by staining with Oil red-O in frozen cardiac sections and quantitated in cardiac homogenates extracted using the method of Bligh and Dyer and measured using a standard commercial enzymatic assay.

[3] = test system: cardiac hypertrophy (β-MHC, α-MHC); assay: Assessment of cardiac hypertrophy in HF-fed mice; details: HF diet; for Mean myocyte diameter / Total LV mass / Total cardiac mass: 1 mg/kg/day oral gavage; for Gene expression Alpha MHC / Gene expression Beta MHC: real time RT-PCR
Text: Adult (8-week-old) male […] mice (Precinct Animal Centre, Melbourne, Australia) and RAGE knockout (KO) mice^17 ([…] al., J Clin Invest. 113:1641-50, 2004) were housed in a temperature-controlled room on a 12-h light-dark cycle. Mice were placed on either a standard diet (AIN-93G; Specialty feeds, Perth AUS; n=10/group) or a high fat (HF) diet formulated to mimic a “Western fast food diet”, (SF05-031, Specialty Feeds; n=10). Both diets contained the same vitamin and calorie content. […] Animals receiving a HF diet were further randomized to receive alagebrium chloride at a dose of 1 mg/kg/day delivered by oral gavage. All groups were followed for 16 weeks. The total cardiac and isolated left ventricular mass was measured at sacrifice, and expressed adjusted for body surface area in square meters (m^2). […] Cardiac hypertrophy in obesity reactivates the fetal gene program, characterized by a switch to β-Myosin heavy chain (β-MHC) expression in the adult murine heart^8 (Ng et al., Circ Res. 68:1742-50, 1991). Gene expression of markers of pathological hypertrophy, β-MHC and α-MHC were assessed by real-time quantitative RT-PCR. This was performed using the TaqMan system based on real-time detection of accumulated fluorescence, as previously described^19 (Thomas et al., J Am Soc Nephrol. 16:2976-84, 2005). Gene expression was normalized to 18S mRNA and reported as ratios compared to the level of expression in untreated control mice, which were given the arbitrary value of one.

[4] = test system: myocardial inflammation (IL-6, TNF α, ICAM-1, MCP-1, NF-κBp65); assay: Assessment of myocardial inflammation in HF-fed mice; details: HF diet, real time RT-PCR
Text: Adult (8-week-old) male […] mice (Precinct Animal Centre, Melbourne, Australia) and RAGE knockout (KO) mice^17 ([…] al., J Clin Invest. 113:1641-50, 2004) were housed in a temperature-controlled room on a 12-h light-dark cycle. Mice were placed on either a standard diet (AIN-93G; Specialty feeds, Perth AUS; n=10/group) or a high fat (HF) diet formulated to mimic a “Western fast food diet”, (SF05-031, Specialty Feeds; n=10). Both diets contained the same vitamin and calorie content. […] Animals receiving a HF diet were further randomized to receive alagebrium chloride at a dose of 1 mg/kg/day delivered by oral gavage. All groups were followed for 16 weeks. The expression of inflammatory cytokines, tumor necrosis factor (TNFα), interleukin-6 (IL-6), along with macrophage infiltration, is augmented following cardiac stress. The gene expression of IL-6, TNF α, the adhesion molecule, ICAM-1 and the chemokine, […] (MCP-1) in left ventricular homogenates were assessed by real-time quantitative RT-PCR. The myocardial expression of IL-6 protein was further quantitated by ELISA.

[5] = Wild-type mice, listed as AL, 1 mg/kg/day

Cc1sc[n+](CC(=O)c2ccccc2)c1C.[Cl-] [alagebrium chloride, 3-(2-phenyl-2-oxoethyl)-4,5-dimethylthiazolium chloride]
Glucose ([1]; RAGE KO mice): 13.7 ± 0.7 mmol/L | Weight gain (% baseline) ([1]; RAGE KO mice): 44 ± 7 % baseline | Weight gain (% baseline) ([1]; Wild-type mice, 1 mg/kg/day): reduced | Weight gain (% baseline) [1, 5]: 27 ± 2 % baseline | Glucose ([1]; Wild-type mice, 1 mg/kg/day): equivalent changes | Glucose [1, 5]: 15.1 ± 0.5 mmol/L | intramyocardial accumulation of lipid (Oil-red O staining, cardiac triglyceride content) ([2]; HF-fed mice (FIG. 1)): unaffected | Expression of the fatty acid translocase, CD36 ([2]; HF-fed mice, RT-PCR): similar | Gene expression PPAR alpha ([2]; RAGE KO mice): reduced | Gene expression PPAR alpha ([2]; RAGE KO mice, listed as AL): 1.2 ± 0.3 AU/18s | Gene expression PPAR alpha ([2]; Wild-type mice): reduced | Gene expression PPAR alpha ([2]; Wild-type mice, listed as AL): 1.9 ± 0.4 AU/18s | Mean myocyte diameter ([3]; RAGE KO mice): 19.5 ± 0.6 μm | Total LV mass ([3]; RAGE KO mice): 9.7 ± 0.3 g/m^2 | Total cardiac mass ([3]; RAGE KO mice): 13.7 ± 0.6 g/m^2 | Gene expression Alpha MHC ([3]; RAGE KO mice): reduced | Gene expression Beta MHC ([3]; RAGE KO mice): 1.6 ± 0.2 AU/18s | Gene expression Alpha MHC ([3]; RAGE KO mice, listed as AL): 0.6 ± 0.2 AU/18s | Total LV mass ([3]; Wild-type mice): 9.5 ± 0.3 g/m^2 | Total cardiac mass ([3]; Wild-type mice): 14.5 ± 0.4 g/m^2 | Mean myocyte diameter ([3]; Wild-type mice, 1 mg/kg/day): no effect | Mean myocyte diameter [3, 5]: 19.7 ± 0.8 μm | Gene expression Alpha MHC ([3]; Wild-type mice): reduced | Gene expression Beta MHC ([3]; Wild-type mice): no effect | Gene expression Alpha MHC ([3]; Wild-type mice, listed as AL): 0.7 ± 0.2 AU/18s | Gene expression Beta MHC ([3]; Wild-type mice, listed as AL): 2.5 ± 0.3 AU/18s | Gene expression ICAM-1 (%) ([4]; RAGE KO mice): reduced | Gene expression Interleukin-6 (%) ([4]; RAGE KO mice): no significant effect | Gene expression MCP-1 (%) ([4]; RAGE KO mice): reduced | Gene expression P-65 (%) ([4]; RAGE KO mice): 0.3 ± 0.1 AU/18s | Gene expression TNF-alpha (%) ([4]; RAGE KO mice): no significant effect | Gene expression ICAM-1 (%) ([4]; RAGE KO mice, listed as AL): 0.2 ± 0.1 AU/18s | Gene expression Interleukin-6 (%) ([4]; RAGE KO mice, listed as AL): 0.4 ± 0.1 AU/18s | Gene expression MCP-1 (%) ([4]; RAGE KO mice, listed as AL): 0.2 ± 0.1 AU/18s | Gene expression TNF-alpha (%) ([4]; RAGE KO mice, listed as AL): 0.4 ± 0.1 AU/18s | Gene expression ICAM-1 (%) ([4]; Wild-type mice): reduced; also recorded: prevented | Gene expression Interleukin-6 (%) ([4]; Wild-type mice): reduced; also recorded: prevented | Gene expression MCP-1 (%) ([4]; Wild-type mice): reduced | Gene expression TNF-alpha (%) ([4]; Wild-type mice): reduced; also recorded: prevented | Gene expression ICAM-1 (%) ([4]; Wild-type mice, listed as AL): 0.2 ± 0.1 AU/18s | Gene expression Interleukin-6 (%) ([4]; Wild-type mice, listed as AL): 0.2 ± 0.1 AU/18s | Gene expression MCP-1 (%) ([4]; Wild-type mice, listed as AL): 0.4 ± 0.1 AU/18s | Gene expression P-65 (%) ([4]; Wild-type mice, listed as AL): 0.8 ± 0.2 AU/18s | Gene expression TNF-alpha (%) ([4]; Wild-type mice, listed as AL): 0.5 ± 0.2 AU/18s | Gene expression P-65 (%) ([4]; Wild-type mice, listed as alagebirum chloride): prevented
